# Reference: ChEMBL document CHEMBL1201862, “PubChem BioAssay data set” (2004)
#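 48-hour exposure; five concentrations; linearly interpolated endpoints. GI50 is the concentration that inhibits growth by half.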 Activity calls are given as the source filed them. Cut-off read from the data, not from the text of the source: active = GI50 up to about 1.1 µM and inactive = higher.
# Assays:
# Assay in all cases: inhibition of tumour cell growth, NCI panel, 48 h
# A549 = test system: A549
# KM12 = test system: KM12
# TK-10 = test system: TK-10
# SK-MEL-2 = test system: SK-MEL-2
# HCC 2998 = test system: HCC 2998
# KM-20L2 = test system: KM-20L2
# UO-31 = test system: UO-31
# M14 = test system: M14
# NCI-H23 = test system: NCI-H23
# DLD-1 = test system: DLD-1
# MOLT-4 = test system: MOLT-4
# DMS-114 = test system: DMS-114
# OVCAR-4 = test system: OVCAR-4
# RXF 393 = test system: RXF 393
# HOP-62 = test system: HOP-62
# RPMI-8226 = test system: RPMI-8226
# OVCAR-3 = test system: OVCAR-3
# OVCAR-5 = test system: OVCAR-5
# SK-OV-3 = test system: SK-OV-3
# HL-60 = test system: HL-60
# UACC-62 = test system: UACC-62
# HCT-116 = test system: HCT-116
# DMS-273 = test system: DMS-273
# UACC-257 = test system: UACC-257
# SF-539 = test system: SF-539
# SN12C = test system: SN12C
# A498 = test system: A498
# XF498 = test system: XF498
# NCI-H460 = test system: NCI-H460
# IGROV-1 = test system: IGROV-1
# U-251 = test system: U-251
# SNB-75 = test system: SNB-75
# SNB-78 = test system: SNB-78
# SNB-19 = test system: SNB-19
# OVCAR-8 = test system: OVCAR-8
# HCT-15 = test system: HCT-15
# ACHN = test system: ACHN
# K562 = test system: K562
# CCRF-CEM = test system: CCRF-CEM
# HT-29 = test system: HT-29
# NCI-H226 = test system: NCI-H226
# HOP-92 = test system: HOP-92
# Malme-3M = test system: Malme-3M
# COLO 205 = test system: COLO 205
# M19-MEL = test system: M19-MEL
# SK-MEL-28 = test system: SK-MEL-28
# 786-0 = test system: 786-0
# CAKI-1 = test system: CAKI-1
# SK-MEL-5 = test system: SK-MEL-5
# SF-268 = test system: SF-268
# SF-295 = test system: SF-295
# SW-620 = test system: SW-620
# NCI-H522 = test system: NCI-H522
# LOX IMVI = test system: LOX IMVI
# EKVX = test system: EKVX
# LXFL 529 = test system: LXFL 529
structure (smiles),measurement,setting,value
CS(=O)(=O)OCCN1CCN(C(=O)c2cccc3c(Nc4ccc(S(=O)(=O)N=C(N)N)cc4)c4ccccc4nc23)CC1,GI50,A549,> 100 µM (inactive)
same,GI50,KM12,> 100 µM (inactive)
same,GI50,TK-10,> 100 µM (inactive)
same,GI50,SK-MEL-2,> 10 µM (inactive)
same,GI50,HCC 2998,> 100 µM (inactive)
same,GI50,KM-20L2,> 100 µM (inactive)
same,GI50,UO-31,> 100 µM (inactive)
same,GI50,M14,> 100 µM (inactive)
same,GI50,NCI-H23,> 100 µM (inactive)
same,GI50,DLD-1,> 100 µM (inactive)
same,GI50,MOLT-4,> 100 µM (inactive)
same,GI50,DMS-114,> 100 µM (inactive)
same,GI50,OVCAR-4,> 100 µM (inactive)
same,GI50,RXF 393,> 100 µM (inactive)
same,GI50,HOP-62,> 100 µM (inactive)
same,GI50,RPMI-8226,> 100 µM (inactive)
same,GI50,OVCAR-3,> 100 µM (inactive)
same,GI50,OVCAR-5,> 100 µM (inactive)
same,GI50,SK-OV-3,> 100 µM (inactive)
same,GI50,HL-60,> 100 µM (inactive)
same,GI50,UACC-62,> 100 µM (inactive)
same,GI50,HCT-116,> 100 µM (inactive)
same,GI50,DMS-273,> 100 µM (inactive)
same,GI50,UACC-257,> 100 µM (inactive)
same,GI50,SF-539,> 100 µM (inactive)
same,GI50,SN12C,> 100 µM (inactive)
same,GI50,A498,> 100 µM (inactive)
same,GI50,XF498,> 100 µM (inactive)
same,GI50,NCI-H460,> 100 µM (inactive)
same,GI50,IGROV-1,> 100 µM (inactive)
same,GI50,U-251,> 100 µM (inactive)
same,GI50,SNB-75,> 100 µM (inactive)
same,GI50,SNB-78,> 100 µM (inactive)
same,GI50,SNB-19,> 100 µM (inactive)
same,GI50,OVCAR-8,> 100 µM (inactive)
same,GI50,HCT-15,> 100 µM
same,GI50,ACHN,> 100 µM (inactive)
same,GI50,K562,> 100 µM (inactive)
same,GI50,CCRF-CEM,> 100 µM (inactive)
same,GI50,HT-29,> 100 µM (inactive)
same,GI50,NCI-H226,> 100 µM (inactive)
same,GI50,HOP-92,> 100 µM (inactive)
same,GI50,Malme-3M,> 100 µM (inactive)
same,GI50,COLO 205,> 100 µM (inactive)
same,GI50,M19-MEL,> 100 µM (inactive)
same,GI50,SK-MEL-28,> 100 µM (inactive)
same,GI50,786-0,> 100 µM (inactive)
same,GI50,CAKI-1,> 100 µM (inactive)
same,GI50,SK-MEL-5,> 100 µM (inactive)
same,GI50,SF-268,> 100 µM (inactive)
same,GI50,SF-295,> 100 µM (inactive)
N#CCC(=O)NC1C2CC3CC(C2)CC1C3 (stereo unspecified),GI50,A549,34 µM (inactive)
same,GI50,KM12,17.7 µM (inactive)
same,GI50,TK-10,19.4 µM (inactive)
same,GI50,SK-MEL-2,19.5 µM (inactive)
same,GI50,HCC 2998,18 µM (inactive)
same,GI50,KM-20L2,18.2 µM (inactive)
same,GI50,SW-620,25.4 µM (inactive)
same,GI50,UO-31,49 µM (inactive)
same,GI50,M14,19.9 µM (inactive)
same,GI50,NCI-H23,16.6 µM (inactive)
same,GI50,DLD-1,20.2 µM (inactive)
same,GI50,MOLT-4,34 µM (inactive)
same,GI50,DMS-114,16 µM (inactive)
same,GI50,OVCAR-4,21.2 µM (inactive)
same,GI50,RXF 393,15.8 µM (inactive)
same,GI50,NCI-H522,17.1 µM (inactive)
same,GI50,HOP-62,23.4 µM (inactive)
same,GI50,RPMI-8226,34.6 µM (inactive)
same,GI50,OVCAR-3,18.1 µM (inactive)
same,GI50,OVCAR-5,22.1 µM (inactive)
same,GI50,SK-OV-3,37.4 µM (inactive)
same,GI50,HL-60,22.8 µM (inactive)
same,GI50,UACC-62,15.1 µM (inactive)
same,GI50,HCT-116,15.2 µM (inactive)
same,GI50,DMS-273,21.6 µM (inactive)
same,GI50,UACC-257,20.9 µM (inactive)
same,GI50,SF-539,18 µM (inactive)
same,GI50,SN12C,16.1 µM (inactive)
same,GI50,A498,16.5 µM (inactive)
same,GI50,NCI-H460,16.7 µM (inactive)
same,GI50,IGROV-1,25.4 µM (inactive)
same,GI50,U-251,16.2 µM (inactive)
same,GI50,SNB-75,17.2 µM (inactive)
same,GI50,SNB-78,20.5 µM (inactive)
same,GI50,SNB-19,17.3 µM (inactive)
same,GI50,LOX IMVI,10.7 µM (inactive)
same,GI50,OVCAR-8,17.5 µM (inactive)
same,GI50,HCT-15,17.2 µM
same,GI50,ACHN,19.1 µM (inactive)
same,GI50,K562,26.5 µM (inactive)
same,GI50,EKVX,18.9 µM (inactive)
same,GI50,CCRF-CEM,18.7 µM (inactive)
same,GI50,HT-29,18.5 µM (inactive)
same,GI50,NCI-H226,22.2 µM (inactive)
same,GI50,HOP-92,18.3 µM (inactive)
same,GI50,Malme-3M,20.3 µM (inactive)
same,GI50,COLO 205,19.3 µM (inactive)
same,GI50,LXFL 529,28.1 µM (inactive)
same,GI50,M19-MEL,24.5 µM (inactive)
same,GI50,SK-MEL-28,19.1 µM (inactive)
same,GI50,786-0,19.5 µM (inactive)
same,GI50,CAKI-1,18.6 µM (inactive)
same,GI50,SK-MEL-5,14.6 µM (inactive)
same,GI50,SF-268,17.7 µM (inactive)
same,GI50,SF-295,16.7 µM (inactive)
